The values below come from PMC11984691, “Identifying ENO1 as a protein target of chlorogenic acid to inhibit cellular senescence and prevent skin photoaging in mice” (Aging Cell, 2024).

The target of one assay is T1, Enolase 1 (ENO1) C399A (Homo sapiens, UniProt P06733, C399A).
T1 construct: recombinant human ENO1-C399A, pET28a, His-tag
As to the kind of experiment: MicroScale Thermophoresis with purified mutant ENO1. It counts as binding. (MST reads how a fluorescent partner responds to local heating, with and without ligand.)

A further assay concerns the target T2, Enolase 1 (ENO1) (Homo sapiens, UniProt P06733).
T2 construct: recombinant wild-type human ENO1 (NP_001419.1), pET28a, His-tag
The assay can be described thus: MicroScale Thermophoresis with purified ENO1; also LC-MS/MS site mapping, CETSA, pull-down competition and enzyme activity inhibition. In kind it is binding.

T1 sequence (P06733 2-434 C399A): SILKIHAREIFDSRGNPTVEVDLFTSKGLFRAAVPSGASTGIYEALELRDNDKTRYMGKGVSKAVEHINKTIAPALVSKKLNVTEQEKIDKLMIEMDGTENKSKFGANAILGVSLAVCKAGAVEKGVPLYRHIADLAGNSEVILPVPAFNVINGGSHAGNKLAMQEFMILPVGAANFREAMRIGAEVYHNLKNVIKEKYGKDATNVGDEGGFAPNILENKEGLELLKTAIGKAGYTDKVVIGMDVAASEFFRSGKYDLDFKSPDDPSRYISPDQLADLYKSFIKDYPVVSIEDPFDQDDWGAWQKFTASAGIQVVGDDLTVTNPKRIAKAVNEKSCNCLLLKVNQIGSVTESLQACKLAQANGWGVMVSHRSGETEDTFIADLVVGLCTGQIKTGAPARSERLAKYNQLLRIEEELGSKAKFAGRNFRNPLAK
T2 sequence (P06733 2-434): as the sequence (P06733 2-434 C399A) above, with A398C counted along it

What is called Kd is the concentration at which binding is half-saturated. Low values mean higher affinity, high ones lower affinity. Consider `O=C(/C=C/c1ccc(O)c(O)c1)O[C@@H]1C[C@](O)(C(=O)O)C[C@@H](O)[C@H]1O` [CGA, Chlorogenic acid], for which the Kd at Enolase 1 (ENO1) C399A turned out to be 130 µM; on Enolase 1 (ENO1) it was 20 µM.
